Read-outs that look alike come from different tables or passages of the source.
Tests used:
[1] = target: T1, DR15=HLA-DR(α1*0101,α1*1501) (Homo sapiens, UniProt P01903+P01911); experiment: HLA-DR specific binding assay, DR15
T1 construct: endogenous in cells; host or cells: EBV homozygous human B cell line

[2] = target: T2, DR4=HLA-DR(α1*0101,α1*0401) (Homo sapiens, UniProt P01903+P01911, A100K/A169T/F76Y/I96L/K127E/L162R/M171V/N62H/P40V/Q125Y/R42H/S133A/S149N/S66Y/V115G/V209L/W38E); experiment: biochemical; type: binding
T2 construct: endogenous in cells; host or cells: BOLETH (EBV homozygous B cell line)

[3] = target: T3, DR13=HLA-DR(α1*0101,α1*1301) (Homo sapiens, UniProt P01903+P01911, A100E/A169T/K41T/L162R/M171V/P40S/Q125H/Q178H/Q39Y/Q99D/R42S/S66N/T262R/W38E/Y61H); experiment: HLA-DR specific binding assay, DR13
T3 construct: endogenous in cells; host or cells: 0206AD (EBV homozygous B cell line)

[4] = target: T4, DR1=HLA-DR(α1*0101,α1*0101) (Homo sapiens, UniProt P01903+P01911, A100R/D57E/F55L/F60I/F76Y/I96L/L162R/M171V/P40L/Q125E/R42F/V115G/Y59C); experiment: biochemical; type: binding; details: […]
T4 construct: endogenous in cells; host or cells: EBV homozygous human B cell line

[5] = target: T5, DR3=HLA-DR(α1*0101,α1*0301) (Homo sapiens, UniProt P01903+P01911, A100K/A102G/A103R/A169T/F55Y/I96L/K41T/L162R/M171V/P40S/Q125H/Q178H/Q39Y/R42S/S66N/T106N/T262R/W38E/Y61H); experiment: HLA-DR specific binding assay, DR3
T5 construct: endogenous in cells; host or cells: STEILIN (EBV homozygous B cell line)

[6] = target: T6, DP402 DP (α1*0101, α1*0402) (Homo sapiens, UniProt P04440+P20036, A65V/A84D/A85E/L207M); experiment: biochemical; type: binding
T6 sequence (P20036 29-260): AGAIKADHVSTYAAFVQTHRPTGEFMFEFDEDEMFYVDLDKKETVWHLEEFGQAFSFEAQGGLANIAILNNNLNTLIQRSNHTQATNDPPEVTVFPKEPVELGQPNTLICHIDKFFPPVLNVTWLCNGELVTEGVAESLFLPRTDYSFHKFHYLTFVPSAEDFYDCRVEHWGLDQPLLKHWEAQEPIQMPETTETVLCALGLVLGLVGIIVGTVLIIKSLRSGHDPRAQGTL
T6 sequence (P04440 30-258 A65V/A84D/A85E): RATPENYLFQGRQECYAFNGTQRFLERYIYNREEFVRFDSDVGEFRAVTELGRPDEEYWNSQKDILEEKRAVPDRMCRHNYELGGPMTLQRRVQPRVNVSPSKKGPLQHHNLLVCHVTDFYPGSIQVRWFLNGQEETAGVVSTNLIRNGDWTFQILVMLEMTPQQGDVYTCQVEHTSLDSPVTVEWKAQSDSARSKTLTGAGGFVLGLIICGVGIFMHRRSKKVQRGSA

[7] = target: T7, DRB4=HLA-DR(α1*0101,α4*0101) (Homo sapiens, UniProt P01903+P13762, G164S); experiment: HLA-DR specific binding assay, DRB4 (DR53)
T7 construct: endogenous in cells

[8] = test system: lymphocytes obtained from HSV-1 infected H-2^d mice; experiment: HSV-primed T-cell responses to gD peptides in HSV-1 infected mice; type: cell-based; details: for T-cell responses recalled in HSV infected mice: HSV infected H-2^d mice (FIG. 6); for immunodominance of epitopes in HSV-primed T-cell responses: HSV-1 infected H-2^d mice
Description: Twelve days after the second immunization, spleen and inguinal lymph nodes (LN) were removed and placed into ice-cold serum free HL-1 medium supplemented with 15 mM HEPES, 5×10^−5 M β-mercaptoethanol, 2 mM glutamine, 50 U of penicillin and 50 μg of streptomycin (GIBCO-BRL, Grand Island, N.Y.) (complete medium, CM). The cells were cultured in 96-well plates at 5×10^5 cells/well in CM, with recall or control peptide at 30, 10, 3, 1, or 0.3 μg/ml concentration, as previously described in (BenMohamed et al., 2000 and 2002). The cell suspensions were incubated for 72 h at 37° C. in 5% CO2. One μCi (micro-curie) of (^3H)-thymidine (Dupont MEN, Boston, Mass.) was added to each well during the last 16 h of culture. The incorporated radioactivity was determined by harvesting cells onto glass fiber filters and counted on a Matrix 96 direct ionization-counter (Packard Instruments, Meriden, Conn.). Results were expressed as the mean cpm of cell-associated (^3H)-thymidine recovered from wells containing Ag minus the mean cpm of cell-associated (^3H)-thymidine recovered from wells without Ag (A cpm) (average of triplicate). The Stimulation Index (SI) was calculated as the mean cpm of cell-associated (^3H)-thymidine recovered from wells containing Ag divided by the mean cpm of cell-associated (^3H)-thymidine recovered from wells without Ag (average of triplicate). For all experiments the irrelevant control peptide gB141-165 and the T-cell mitogen Concanavalin A (ConA) (Sigma, St. Louis, Mo.) were used as negative and positive controls, respectively. Proliferation results were confirmed by repeating each experiment twice. A T-cell proliferative response was considered positive when A cpm>1000 and SI>2.
To define the fine specificity of broadly reactive T-cells associated with viral immunity and to explore immunodominance in the context of HSV infection, proliferation of lymphocytes obtained from twenty HSV-1 infected H-2^d mice were evaluated using the twelve gD peptides as Ag (FIG. 6). […] Despite a difference between individual mice, a unique array of T-cell responses was identified for each of the twenty infected mice analyzed.

[9] = target: T8, DR11=HLA-DR(α1*0101,α1*1101) (Homo sapiens, UniProt P01903+P01911, A100R/A169T/A87E/I96F/K41T/L162R/M171V/P40S/Q125H/Q178H/Q39Y/Q99D/R42S/S66Y/T262R/V115G/W38E); experiment: biochemical; type: binding
T8 construct: endogenous in cells; host or cells: SWEIG (EBV homozygous B cell line)

[10] = test system: HLA-DR and HLA-DP molecules; experiment: MHC class II binding assays, panel of twelve HLA class II molecules (number of alleles bound); details: number of the twelve class II MHC alleles bound; title: Threshold 600 nM/5 alleles
[11] = Class II MHC allele DR1, read-out: IC50, DR1
[12] = IC50, DR3, Class II MHC allele DR3
[13] = Class II MHC allele DR4, read-out: IC50, DR4
[14] = Table V, […], read-out: IC50 DR4
[15] = read-out: IC50, DR13, Class II MHC allele DR13

SMILES: CC[C@H](C)[C@H](NC(=O)[C@H](CO)NC(=O)[C@H](CC(=O)O)NC(=O)[C@@H](NC(=O)[C@@H](NC(=O)[C@@H](NC(=O)CNC(=O)[C@H](CCC(N)=O)NC(=O)[C@H](CCC(N)=O)NC(=O)[C@H](Cc1ccc(O)cc1)NC(=O)[C@H](C)NC(=O)[C@H](CCC(N)=O)NC(=O)[C@@H]1CCCN1C(=O)[C@H](CO)NC(=O)[C@H](CC(C)C)NC(=O)[C@H](CS)NC(=O)[C@H](C)NC(=O)[C@@H](N)CO)C(C)C)[C@@H](C)O)C(C)C)C(=O)NCC(=O)N[C@@H](CCSC)C(=O)N[C@@H](CC(C)C)C(=O)N1CCC[C@H]1C(=O)N[C@@H](CCCNC(=N)N)C(=O)N[C@@H](Cc1ccccc1)C(=O)N[C@H](C(=O)N1CCC[C@H]1C(=O)N[C@@H](CCC(=O)O)C(=O)N[C@@H](CC(N)=O)C(=O)N[C@@H](CCC(N)=O)C(=O)N[C@@H](CCCNC(=N)N)C(=O)N[C@H](C(=O)N[C@H](C(=O)N[C@@H](C)C(=O)N[C@H](C(=O)N[C@@H](Cc1ccc(O)cc1)C(=O)O)C(C)C)C(C)C)[C@@H](C)O)[C@@H](C)CC [HSV 37]
- IC50 [1]: 13 nM
- IC50 ([2]; IC50, DR4): 40 nM
- IC50 ([2]; IC50 DR4): 40 nM
- IC50 [3]: 2050 nM
- IC50 ([4]; Table V, read-out: IC50 DR1): 4 nM
- IC50 [4, 11]: 4 nM
- IC50 [5, 12]: 307 nM
- IC50 ([5]; IC50 DR3, Table V, […]): 307 nM
- IC50 ([6]; Class II MHC allele DP402): 167 nM
- IC50 ([6]; Table V, […]): 167 nM
- IC50 [7]: 3740 nM
- T-cell responses recalled in HSV infected mice [8]: either low or no response
- IC50 ([9]; Class II MHC allele DR11, read-out: IC50, DR11): 44 nM
- IC50 ([9]; Table V, […], read-out: IC50 DR11): 44 nM
- Range [10]: 9

SMILES: CC[C@H](C)[C@H](NC(=O)[C@H](CO)NC(=O)[C@@H]1CCCN1C(=O)[C@@H](NC(=O)[C@H](Cc1c[nH]cn1)NC(=O)[C@H](Cc1c[nH]c2ccccc12)NC(=O)[C@H](CC(N)=O)NC(=O)[C@@H]1CCCN1C(=O)[C@@H]1CCCN1C(=O)[C@@H](NC(=O)[C@H](CCC(N)=O)NC(=O)[C@@H]1CCCN1C(=O)[C@H](C)N)[C@@H](C)CC)[C@@H](C)CC)C(=O)N[C@@H](CCC(N)=O)C(=O)N[C@@H](CC(=O)O)C(=O)N[C@@H](C)C(=O)N[C@@H](C)C(=O)N[C@H](C(=O)N1CCC[C@H]1C(=O)N[C@@H](Cc1ccc(O)cc1)C(=O)N[C@@H](Cc1c[nH]cn1)C(=O)N1CCC[C@H]1C(=O)N1CCC[C@H]1C(=O)N[C@@H](C)C(=O)N[C@H](C(=O)N1CCC[C@H]1C(=O)N[C@@H](CC(N)=O)C(=O)N[C@@H](CC(N)=O)C(=O)N[C@@H](CCSC)C(=O)NCC(=O)N[C@@H](CC(C)C)C(=O)O)[C@@H](C)O)[C@@H](C)O [HSV 35]
- IC50 [1]: 6790 nM
- IC50 [2, 13]: 600 nM
- IC50 [2, 14]: 600 nM
- IC50 [3]: > 100000 nM
- IC50 [3, 15]: > 100000 nM
- IC50 ([4]; Table V, read-out: IC50 DR1): 3160 nM
- IC50 [4, 11]: 3160 nM
- IC50 [5, 12]: 19500 nM
- IC50 ([5]; IC50 DR3, Table V, […]): 19500 nM
- IC50 ([6]; Class II MHC allele DP402): > 100000 nM
- IC50 ([6]; Table V, […]): > 100000 nM
- IC50 [7]: 3260 nM
- T-cell responses recalled in HSV infected mice [8]: either low or no response
- immunodominance of epitopes in HSV-primed T-cell responses [8]: immunodominant epitopes
- IC50 ([9]; IC50, DR11): 25000 nM
- IC50 ([9]; IC50 DR11): 25000 nM
- Range [10]: 1

SMILES: CC[C@H](C)[C@H](NC(=O)[C@H](CCC(N)=O)NC(=O)[C@@H]1CCCN1C(=O)[C@H](C)NC(=O)[C@H](CCC(=O)O)NC(=O)[C@H](CO)NC(=O)[C@@H]1CCCN1C(=O)[C@H](C)NC(=O)[C@H](CC(N)=O)NC(=O)[C@H](CC(C)C)NC(=O)[C@H](CC(C)C)NC(=O)[C@@H](NC(=O)[C@H](CO)NC(=O)[C@H](CCCNC(=N)N)NC(=O)[C@H](CS)NC(=O)[C@H](C)NC(=O)[C@H](CCCNC(=N)N)NC(=O)[C@H](CCC(=O)O)NC(=O)[C@H](CC(C)C)NC(=O)[C@@H](NC(=O)[C@H](C)NC(=O)[C@H](Cc1ccc(O)cc1)NC(=O)[C@H](Cc1ccc(O)cc1)NC(=O)[C@@H](NC(=O)[C@@H](NC(=O)[C@@H](NC(=O)[C@@H]1CCCN1C(=O)[C@H](CC(C)C)NC(=O)[C@H](CO)NC(=O)[C@@H]1CCCN1C(=O)[C@@H]1CCCN1C(=O)[C@@H](N)CCC(N)=O)[C@@H](C)CC)[C@@H](C)O)C(C)C)C(C)C)C(C)C)C(=O)N[C@H](C(=O)N[C@@H](CCCNC(=N)N)C(=O)O)C(C)C [HSV 36]
- IC50 [1]: 18 nM
- IC50 [2, 13]: 93 nM
- IC50 [2, 14]: 93 nM
- IC50 [3]: > 100000 nM
- IC50 [3, 15]: > 100000 nM
- IC50 ([4]; Table V, read-out: IC50 DR1): 3 nM
- IC50 [4, 11]: 3 nM
- IC50 [5, 12]: 1250 nM
- IC50 ([5]; IC50 DR3, Table V, […]): 1250 nM
- IC50 ([6]; Class II MHC allele DP402): 98 nM
- IC50 ([6]; Table V, […]): 98 nM
- immunodominance of epitopes in HSV-primed T-cell responses [8]: immunodominant epitopes
- IC50 ([9]; IC50, DR11): 120 nM
- IC50 ([9]; IC50 DR11): 120 nM
- Range [10]: 9
